According to patent publication US9242977B2, “Trk-inhibiting compound” (ONO PHARMACEUTICAL CO., LTD., priority 2012, dated 2016):

What was measured:
TrkA = TrkA (Homo sapiens (Human), UniProt P04629); assay: Measurement of TrkA enzyme-inhibiting activity (LanthaScreen TR-FRET kinase assay); type: biochemical; details: final ATP 150 μM, read-out: TrkA inhibitory activity (IC50; μM)
Method: TrkA-inhibiting activity was measured according to the following method using LanthaScreen™ kinase assay reagents (Invitrogen; Fluorescein-Poly GT, LanthaScreen™ Tb-PY20 and TR-FRET Dilution Buffer), TrkA (Invitrogen), ATP (Sigma-Aldrich), a kinase reaction buffer (50 mM HEPES buffer (Sigma-Aldrich) (pH 7.5) containing 0.01% Brij35 (Sigma-Aldrich), 10 mM MgCl2 (Sigma-Aldrich) and 1 mM EGTA (Sigma-Aldrich)) and 0.5 M EDTA (pH 8.0) (Invitrogen).
The present compound was dissolved in dimethylsulfoxide (hereinafter abbreviated as DMSO) to prepare a 10 mM solution. The test compound at 10 mM was distributed into a 96-well plate and serially diluted with DMSO with the geometrical ratio of 3. The serial dilutions (DMSO solutions) were diluted with the kinase reaction buffer to 20-fold to prepare solutions of the present compound with 5-times concentrations (DMSO concentration: 5%). TrkA was diluted with the kinase reaction buffer to prepare a solution at 38.5 ng/mL (enzyme solution). Adenosine triphosphate (hereinafter abbreviated as ATP) was preliminarily diluted in distilled water to prepare a 10 mM solution which was then divided into containers and stored at −20° C. The 10 mM ATP solution and Fluorescein-Poly GT were diluted in the kinase reaction buffer to prepare a solution containing […] of ATP and 500 nM of Fluorescein-Poly GT (ATP-substrate solution). EDTA (0.5 M; pH 8.0) and LanthaScreen™ Tb-PY20 were diluted in the TR-FRET Dilution Buffer to prepare a solution containing 20 mM of EDTA and 4 nM of LanthaScreen™ Tb-PY20 (detection buffer).
The solutions of the present compound (5 μL/well) and the enzyme solution (10 μL/well) were added to a 96-half well assay plate and the plate was shaken at room temperature for 10 minutes on a plate shaker (IKA™ MTS2/4 digital microplate, IKA Japan K.K.). As a control and a blank, the kinase reaction buffer containing 5% DMSO (5 μL/well) was added in place of the solution of the present compound. As a blank, the kinase reaction buffer (10 μL/well) was added in the place of the enzyme solution. The ATP-substrate solution (10 μL/well) was then added to the plate to initiate kinase reaction and the plate was shaken in the dark at room temperature for 1 hour on the plate shaker (final concentration of TrkA: 15.4 ng/mL, final concentration of the substrate: 200 nM and final concentration of ATP: 150 μM). Kinase reaction was terminated by adding the detection buffer (25 μL/well) to the plate and the plate was shaken in the dark at room temperature for 30 minutes on the plate shaker. On an Analyst GT (Molecular Devices Japan, K.K.) the wells were irradiated with excitation light at 340 nm and the fluorescence intensities at 520 nm and 495 nm were measured. The fluorescence intensity at 520 nm for each well was divided by the fluorescence intensity at 495 nm to calculate the time resolved fluorescence resonance energy transfer (TR-FRET) ratio.
The inhibition rate (%) of the present compound was calculated according to the following Equation 1: Inhibition rate (%)={1−(AX−AB)/(AC−AB)×100 Equation 1
wherein AX: the TR-FRET ratio when the present compound is added;
AB: the TR-FRET of the blank; and
AC: the TR-FRET of the control.
The value for 50% inhibition by the present compound (IC50 value) was calculated from the inhibition curve based on the inhibition rate of the present compound at respective concentrations.

[1] = system: NGF-induced vascular hyper permeability; assay: Suppression of rat NGF-induced vascular hyper permeability (in vivo test, Evans Blue); details: oral, 12 hours after administration, read-out: Rates of Suppression for Vascular Hyper Permeability (%)
Method: TrkA-inhibiting activity of the present compound was evaluated in vivo. The present compound dissolved in a medium was orally administered (adminstered volume: 5 mL/kg) to male CD(SD)IGS rats (7- to 9-week old, Charles River laboratories Japan, Inc.) shaved on the back. A medium was orally administered (adminstered volume: 5 mL/kg) to the control and normal groups. After 6 or 12 hours of administration, 3 μg/mL of a NGF (Mouse 2.5s, Natural, Invitrogen) solution prepared in 0.1% BSA (Sigma-Aldrich)-containing saline was intracutaneously administered (dose; 50 μL/site) at 3 sites on the back of animals under halothane anesthesia. For the normal group, 0.1% BSA-containing saline was intracutaneously administered (dose; 50 μL/site) at 3 sites on the back. Immediately after intracutaneous administration, 1% Evans Blue (Tokyo Chemical Industry Co., Ltd.) was administered intravenously from tail (adminstered volume: 3 mL/kg). After 10 minutes of administration, the animals were sacrificed by bleeding due to incision of the abdominal aorta. The sites of intracutaneous administration on the back (3 sites) were excised and the skin samples were respectively transferred to the wells in a 48-well plate (Asahi Glass Co., Ltd.). Formamide (0.8 mL/well) was added to the plate and the plate was sealed and incubated overnight at 60° C. The formamide extraction solution (200 μL) was transferred to a 96-well plate and the absorbance (wavelength: 620 nm) of Evans Blue extracted in formamide was measured on an absorbance microplate reader (SpectraMAX 190, Molecular Devices Japan, K.K.). Standard samples of Evans Blue dissolved in formamide (0, 0.78, 1.56, 3.13, 6.25, 12.5, 25 and 50 μg/mL) were measured at the same time for the absorbance (wavelength: 620 nm) to generate a calibration curve. Based on the calibration curve and the absorbances of samples, the concentrations of Evans Blue in the sample was calculated. The concentrations of Evans Blue for three skin samples collected from one aminal were averaged to obtain the vale for the animal. The rate of suppression for rat NGF-induced vascular hyper permeability of the present compound was calculated according to the following Equation 4: Suppression rate (%)=(1−(AX−AN)/(AC−AN)}×100 Equation 4
wherein AX: the concentration of Evans Blue of the test compound (an average value of 3 samples from one animal);
AN: the concentration of Evans Blue of the normal group (an average value of 3 samples from one animal);
AC: the concentration of Evans Blue of the control group (an average value of 3 samples from one animal).

TrkA, sequence (P04629 33-796): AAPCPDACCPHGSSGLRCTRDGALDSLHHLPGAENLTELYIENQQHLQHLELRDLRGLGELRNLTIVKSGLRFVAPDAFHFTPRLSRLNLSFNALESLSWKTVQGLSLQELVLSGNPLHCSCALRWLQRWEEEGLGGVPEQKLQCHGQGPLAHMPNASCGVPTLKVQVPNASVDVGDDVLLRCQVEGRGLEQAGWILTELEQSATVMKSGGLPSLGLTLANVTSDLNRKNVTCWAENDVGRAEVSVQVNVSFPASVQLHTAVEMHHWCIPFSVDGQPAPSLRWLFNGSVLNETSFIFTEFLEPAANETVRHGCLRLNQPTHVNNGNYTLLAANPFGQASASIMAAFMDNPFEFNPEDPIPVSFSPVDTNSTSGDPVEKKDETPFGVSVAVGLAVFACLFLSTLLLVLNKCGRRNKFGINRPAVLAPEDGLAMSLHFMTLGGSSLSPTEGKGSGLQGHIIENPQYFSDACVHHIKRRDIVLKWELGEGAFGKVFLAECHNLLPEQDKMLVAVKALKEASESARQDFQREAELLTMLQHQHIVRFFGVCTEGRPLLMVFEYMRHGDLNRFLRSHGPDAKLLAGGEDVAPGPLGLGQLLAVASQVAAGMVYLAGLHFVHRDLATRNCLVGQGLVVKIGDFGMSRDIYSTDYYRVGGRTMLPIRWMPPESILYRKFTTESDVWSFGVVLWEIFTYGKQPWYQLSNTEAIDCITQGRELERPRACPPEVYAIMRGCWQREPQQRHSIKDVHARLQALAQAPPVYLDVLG

Structure (SMILES) | IC50 (TrkA) [µM] | inhibition in vivo at 1 mg/kg [1] [%]
O=C(Nc1cnc(Oc2ccc(-c3cnc(N4CCCC4=O)s3)cc2)nc1)Nc1cc(C(F)(F)F)cnc1-c1ccccc1 [Example 54, 1-(2-{4-[2-(2-oxo-1-pyrrolidinyl)-1,3-thiazol-5-yl]phenoxy}-5-pyrimidinyl)-3-[2-phenyl-5-(trifluoromethyl)-3-pyridinyl]urea] | 0.04 | 88
CCCNc1ncc(-c2ccc(Oc3ncc(NC(=O)Nc4cc(C(F)(F)F)ccc4Cl)cn3)cc2)s1 [Example 85-117, 1-[2-chloro-5-(trifluoromethyl)phenyl]-3-(2-{4-[2-(propylamino)-1,3-thiazol-5-yl]phenoxy}-5-pyrimidinyl)urea] | 0.02 | 74
Cc1cccc(-c2ncc(C(F)(F)F)cc2NC(=O)Nc2cnc(Oc3ccc(-c4cnc(N5CCCC5=O)s4)cc3)nc2)c1 [Example 57, 1-[2-(3-methylphenyl)-5-(trifluoromethyl)-3-pyridinyl]-3-(2-{4-[2-(2-oxo-1-pyrrolidinyl)-1,3-thiazol-5-yl]phenoxy}-5-pyrimidinyl)urea] | 0.03 | 78
CCNc1ncc(-c2ccc(Oc3ccc(NC(=O)Nc4cc(C(F)(F)F)cnc4-c4ccc(C)c(C)c4)cn3)cc2)s1 [Example 34, 1-[2-(3,4-dimethylphenyl)-5-(trifluoromethyl)-3-pyridinyl]-3-(6-{4-[2-(ethylamino)-1,3-thiazol-5-yl]phenoxy}-3-pyridinyl)urea] | 0.18 | 75
CCNc1ncc(-c2ccc(Oc3ncc(NC(=O)Nc4cc(C(F)(F)F)cnc4Oc4ccccc4)cn3)cc2)s1 [Example 48, 1-(2-{4-[2-(ethylamino)-1,3-thiazol-5-yl]phenoxy}-5-pyrimidinyl)-3-[2-phenoxy-5-(trifluoromethyl)-3-pyridinyl]urea] | 0.12 | 71
CCNc1ncc(-c2ccc(Oc3ncc(NC(=O)Nc4cc(C(F)(F)F)cnc4-c4ccc(C)cc4)cn3)cc2)s1 [Example 23, 1-(2-{4-[2-(ethylamino)-1,3-thiazol-5-yl]phenoxy}-5-pyrimidinyl)-3-[2-(4-methylphenyl)-5-(trifluoromethyl)-3-pyridinyl]urea] | 0.09 | 78
